# Assays:
# Assay type in all cases: in vivo
# [1] = system: ladysthumb smartweed (Polygonum persicaria); experiment: Test C; set-up: key: 0 was no effect; 100 was complete control; settings: PREEMERGENCE
# [2] = system: Spanishneedles (Bidens bipinnata); experiment: Test E pre-/postemergence/post directed
# Method in brief: (§1)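 Greenhouse pots; compound in non-phytotoxic solvent with surfactant, sprayed preemergence within one day of planting, postemergence at two to four leaf stage (three to twenty cm), or post directed to plant base and soil. Visual injury rated 13 to 21 days after application, 0 (none) to 100 (complete control).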
# [3] = system: bermudagrass (Cynodon dactylon); experiment: Test E pre-/postemergence/post directed
# Method in brief: as §1
# [4] = system: johnson grass (Sorghum halepense); experiment: Test E pre-/postemergence/post directed
# Method in brief: as §1
# [5] = system: pitted morningglory (Ipomoea lacunosa); experiment: Test E pre-/postemergence/post directed
# Method in brief: as §1
# [6] = system: sandbur (Cenchrus echinatus); experiment: Test E pre-/postemergence/post directed; settings: PREEMERGENCE
# Method in brief: as §1
# [7] = system: large crabgrass (Digitaria sanguinalis); experiment: Test E pre-/postemergence/post directed
# Method in brief: as §1
# [8] = system: itchgrass (Rottboellia exaltata); experiment: Test E pre-/postemergence/post directed
# Method in brief: as §1
# [9] = system: common ragweed (Ambrosia elatior); experiment: Test E pre-/postemergence/post directed
# Method in brief: as §1
# [10] = system: dallisgrass (Paspalum dilatatum); experiment: Test E pre-/postemergence/post directed; set-up: key: 0 is no effect; 100 is complete control
# Text: (§2) Seeds, tubers, or plant parts of alexandergrass (Brachiaria plantaginea), annual bluegrass (Poa annua), arrowleaf sida (Sida rhombifolia), barnyardgrass (Echinochloa crus-galli), bermudagrass (Cynodon dactylon), citrus (Citrus sinensis), common chickweed (Stellaria media), common purslane (Portulaca oleracea), common ragweed (Ambrosia elatior), common groundsel (Senecio vulgaris), dallisgrass (Paspalum dilatatum), goosegrass (Eleusine indica), green foxtail (Setaria viridis), guineagrass (Panicum maximum), itchgrass (Rottboellia exaltata), johnson grass (Sorghum halepense), kochia (Kochia scoparia), large crabgrass (Digitaria sanguinalis), leafy spurge (Euphorbia esula), pitted morningglory (Ipomoea lacunosa), purple nutsedge (Cyperus rotundus), quackgrass (Agropyron repens), Russian thistle (Salsola kali), sandbur (Cenchrus echinatus), sourgrass (Trichachne insularis), Spanishneedles (Bidens bipinnata), sugarcane (Saccharum officinarum), surinam grass (Brachiaria decumbens) and tall mallow (Malva sylvestris) were planted into greenhouse pots of flats containing greenhouse planting medium. Plant species were grown grown in separate pots or individual compartments. Preemergence applications were made within one day of planting the seed or plant part. Postemergence applications were applied when the plants were in the two to four leaf stage (three to twenty cm).
# (§3) Test chemicals were formulated in a non-phytotoxic solvent mixture which included a surfactant and applied preemergence to the soil surface, postemergence to the plants or as a post directed spray to plants and soil at the base of the target species. Untreated control plants and treated plants were placed in the greenhouse and visually evaluated for injury 13 to 21 days after herbicide application. Plant response ratings, summarized in Table E, are based on a 0 to 100 scale where 0 is no injury and 100 is complete control. A dash (−) response means no test result.
# [11] = system: tall mallow (Malva sylvestris); experiment: Test E pre-/postemergence/post directed; set-up: key: 0 is no effect; 100 is complete control; settings: PREEMERGENCE
# Text: as §2, §3
# [12] = system: guineagrass (Panicum maximum); experiment: Test E pre-/postemergence/post directed; set-up: key: 0 is no effect; 100 is complete control
# Text: as §2, §3
# [13] = system: common groundsel (Senecio vulgaris); experiment: Test E pre-/postemergence/post directed; set-up: key: 0 is no effect; 100 is complete control; settings: PREEMERGENCE
# Text: as §2, §3
# [14] = system: large crabgrass (Digitaria sanguinalis); experiment: Test E pre-/postemergence/post directed; set-up: key: 0 is no effect; 100 is complete control; settings: PREEMERGENCE
# Text: as §2, §3
# [15] = system: sourgrass (Trichachne insularis); experiment: Test E pre-/postemergence/post directed; set-up: key: 0 is no effect; 100 is complete control
# Text: as §2, §3
# [16] = system: common ragweed (Ambrosia elatior); experiment: Test E pre-/postemergence/post directed; set-up: key: 0 is no effect; 100 is complete control; settings: PREEMERGENCE
# Text: as §2, §3
# [17] = system: common purslane (Portulaca oleracea); experiment: Test E pre-/postemergence/post directed; set-up: key: 0 is no effect; 100 is complete control
# Text: as §2, §3
# [18] = system: barnyardgrass (Echinochloa crus-galli); experiment: Test C; settings: PREEMERGENCE
# [19] = system: cotton (Gossypium hirsutum); experiment: Test C; settings: PREEMERGENCE
compound,measurement,setting,value
Cc1cnc(-c2ccc(C(F)(F)F)cc2)nc1Cc1cccc(OC(F)(F)F)c1 [Compound 15],"Plant response rating, Ladysthumb",[1]; Rate 35 g/ha,0
same,"Plant response rating, Ladysthumb",[1]; Rate 70 g/ha,20
same,"Plant response rating, Ladysthumb",[1]; Rate 140 g/ha,90
same,"Plant response rating, Spanishneedles","[2]; POSTEMERGENCE, Rate 125 g/ha",5
same,"Plant response rating, Spanishneedles","[2]; POSTEMERGENCE, Rate 250 g/ha",10
same,"Plant response rating, Spanishneedles","[2]; PREEMERGENCE, Rate 32 g/ha",50
same,"Plant response rating, Spanishneedles","[2]; PREEMERGENCE, Rate 64 g/ha",30
same,"Plant response rating, Spanishneedles","[2]; PREEMERGENCE, Rate 125 g/ha",98
same,"Plant response rating, Bermudagrass","[3]; POSTEMERGENCE, Rate 125 g/ha",20
same,"Plant response rating, Bermudagrass","[3]; POSTEMERGENCE, Rate 250 g/ha",20
same,"Plant response rating, Bermudagrass","[3]; PREEMERGENCE, Rate 32 g/ha",98
same,"Plant response rating, Bermudagrass","[3]; PREEMERGENCE, Rate 64 g/ha",98
same,"Plant response rating, Bermudagrass","[3]; PREEMERGENCE, Rate 125 g/ha",98
same,"Plant response rating, Bermudagrass","[3]; PREEMERGENCE, Rate 250 g/ha",98
same,"Plant response rating, Johnsongrass","[4]; POSTEMERGENCE, Rate 125 g/ha",98
same,"Plant response rating, Johnsongrass","[4]; PREEMERGENCE, Rate 32 g/ha",60
same,"Plant response rating, Johnsongrass","[4]; PREEMERGENCE, Rate 64 g/ha",90
same,"Plant response rating, Johnsongrass","[4]; PREEMERGENCE, Rate 125 g/ha",90
same,"Plant response rating, P. morninglory","[5]; POSTEMERGENCE, Rate 125 g/ha",5
same,"Plant response rating, P. morninglory","[5]; POSTEMERGENCE, Rate 250 g/ha",5
same,"Plant response rating, P. morninglory","[5]; PREEMERGENCE, Rate 32 g/ha",5
same,"Plant response rating, P. morninglory","[5]; PREEMERGENCE, Rate 64 g/ha",40
same,"Plant response rating, P. morninglory","[5]; PREEMERGENCE, Rate 125 g/ha",75
same,"Plant response rating, P. morninglory","[5]; PREEMERGENCE, Rate 250 g/ha",90
same,"Plant response rating, Sandbur",[6]; Rate 32 g/ha,10
same,"Plant response rating, Sandbur",[6]; Rate 64 g/ha,20
same,"Plant response rating, Sandbur",[6]; Rate 125 g/ha,50
same,"Plant response rating, Large crabgrass","[7]; POSTEMERGENCE, Rate 125 g/ha",10
same,"Plant response rating, Large crabgrass","[7]; POSTEMERGENCE, Rate 250 g/ha",40
same,"Plant response rating, Large crabgrass","[7]; PREEMERGENCE, Rate 32 g/ha",98
same,"Plant response rating, Itchgrass","[8]; POSTEMERGENCE, Rate 125 g/ha",80
same,"Plant response rating, Itchgrass","[8]; POSTEMERGENCE, Rate 250 g/ha",85
same,"Plant response rating, Itchgrass","[8]; PREEMERGENCE, Rate 32 g/ha",10
same,"Plant response rating, Itchgrass","[8]; PREEMERGENCE, Rate 64 g/ha",30
same,"Plant response rating, Itchgrass","[8]; PREEMERGENCE, Rate 125 g/ha",60
same,"Plant response rating, Itchgrass","[8]; PREEMERGENCE, Rate 250 g/ha",80
same,"Plant response rating, Com. ragweed","[9]; POSTEMERGENCE, Rate 125 g/ha",5
same,"Plant response rating, Com. ragweed","[9]; POSTEMERGENCE, Rate 250 g/ha",10
same,"Plant response rating, Com. ragweed","[9]; PREEMERGENCE, Rate 125 g/ha",98
same,"Plant response rating, Dallisgrass","[10]; POSTEMERGENCE, Rate 125 g/ha",5
same,"Plant response rating, Dallisgrass","[10]; POSTEMERGENCE, Rate 250 g/ha",50
same,"Plant response rating, Dallisgrass","[10]; PREEMERGENCE, Rate 32 g/ha",95
same,"Plant response rating, Dallisgrass","[10]; PREEMERGENCE, Rate 64 g/ha",100
same,"Plant response rating, Dallisgrass","[10]; PREEMERGENCE, Rate 125 g/ha",100
same,"Plant response rating, Dallisgrass","[10]; PREEMERGENCE, Rate 250 g/ha",100
same,"Plant response rating, Tall Mallow",[11]; Rate 32 g/ha,98
same,"Plant response rating, Tall Mallow",[11]; Rate 64 g/ha,100
same,"Plant response rating, Tall Mallow",[11]; Rate 125 g/ha,100
same,"Plant response rating, Tall Mallow",[11]; Rate 250 g/ha,98
same,"Plant response rating, Guineagrass","[12]; POSTEMERGENCE, Rate 125 g/ha",20
same,"Plant response rating, Guineagrass","[12]; POSTEMERGENCE, Rate 250 g/ha",40
same,"Plant response rating, Guineagrass","[12]; PREEMERGENCE, Rate 32 g/ha",90
same,"Plant response rating, Guineagrass","[12]; PREEMERGENCE, Rate 64 g/ha",100
same,"Plant response rating, Guineagrass","[12]; PREEMERGENCE, Rate 125 g/ha",100
same,"Plant response rating, Guineagrass","[12]; PREEMERGENCE, Rate 250 g/ha",100
same,"Plant response rating, Com. groundsel",[13]; Rate 32 g/ha,100
same,"Plant response rating, Com. groundsel",[13]; Rate 125 g/ha,100
same,"Plant response rating, Com. groundsel",[13]; Rate 250 g/ha,100
same,"Plant response rating, Large crabgrass",[14]; Rate 64 g/ha,100
same,"Plant response rating, Large crabgrass",[14]; Rate 125 g/ha,100
same,"Plant response rating, Large crabgrass",[14]; Rate 250 g/ha,100
same,"Plant response rating, Sourgrass","[15]; POSTEMERGENCE, Rate 125 g/ha",20
same,"Plant response rating, Sourgrass","[15]; POSTEMERGENCE, Rate 250 g/ha",25
same,"Plant response rating, Sourgrass","[15]; PREEMERGENCE, Rate 32 g/ha",100
same,"Plant response rating, Sourgrass","[15]; PREEMERGENCE, Rate 64 g/ha",100
same,"Plant response rating, Sourgrass","[15]; PREEMERGENCE, Rate 125 g/ha",100
same,"Plant response rating, Sourgrass","[15]; PREEMERGENCE, Rate 250 g/ha",100
same,"Plant response rating, Com. ragweed",[16]; Rate 32 g/ha,100
same,"Plant response rating, Com. ragweed",[16]; Rate 64 g/ha,100
same,"Plant response rating, Com. ragweed",[16]; Rate 250 g/ha,100
same,"Plant response rating, Com. purslane","[17]; POSTEMERGENCE, Rate 125 g/ha",75
same,"Plant response rating, Com. purslane","[17]; POSTEMERGENCE, Rate 250 g/ha",80
same,"Plant response rating, Com. purslane","[17]; PREEMERGENCE, Rate 32 g/ha",100
same,"Plant response rating, Com. purslane","[17]; PREEMERGENCE, Rate 64 g/ha",100
same,"Plant response rating, Com. purslane","[17]; PREEMERGENCE, Rate 125 g/ha",100
same,"Plant response rating, Com. purslane","[17]; PREEMERGENCE, Rate 250 g/ha",100
same,"Plant response rating, Barnyardgrass",[18]; Rate 35 g/ha,10
same,"Plant response rating, Barnyardgrass",[18]; Rate 70 g/ha,35
same,"Plant response rating, Barnyardgrass",[18]; Rate 140 g/ha,85
same,"Plant response rating, Cotton",[19]; Rate 35 g/ha,5
same,"Plant response rating, Cotton",[19]; Rate 70 g/ha,10
same,"Plant response rating, Cotton",[19]; Rate 140 g/ha,10

# From US6525001B1, “Substituted pyrimidine and pyridine herbicides” (Mid-American Commercialization Corporation, priority 1997, dated 2003)
